# Assay results as given in ChEMBL document CHEMBL5543157, “Lead Optimization of Butyrolactone I as an Orally Bioavailable Antiallergic Agent Targeting FcγRIIB” (J Med Chem, 2024).
# Calls of active or inactive are those of the source. No cut-off for these calls is given here.
# Tests used:
# RBL-2H3 [1] = assay: Antiallergic activity in rat RBL-2H3 cell model assessed as inhibition rate of IgE-mediated degranulation in by measuring […] at 50 uM relative to control; type: functional
# RBL-2H3 [2] = assay: Antiallergic activity in rat RBL-2H3 cell model assessed as inhibition rate of IgE-mediated degranulation in by measuring […]; type: functional, cell-based
# [3] = Metabolic stability in human liver microsmes assessed as half life measured upto 60 mins by HPLC analysis; type: ADME; settings: liver microsomes
# [4] = Metabolic stability in human liver microsmes assessed as half life in presence of NADPH measured upto 60 mins by HPLC analysis; type: ADME; settings: liver microsomes
# [5] = Metabolic stability in human liver microsmes assessed as half life in presence of UDPGA measured upto 60 mins by HPLC analysis; type: ADME; settings: liver microsomes
# [6] = AUC (0 to 12 hrs) in Sprague-Dawley rat at 10 mg/kg, iv measured upto 12 hrs by mass spectrometry; type: ADME, organism-based; settings: in vivo
# [7] = AUC (0 to infinity) in Sprague-Dawley rat at 10 mg/kg, iv measured upto 12 hrs by mass spectrometry; type: ADME, organism-based; settings: in vivo
# [8] = Clearance in Sprague-Dawley rat at 10 mg/kg, iv measured upto 12 hrs by mass spectrometry; type: ADME, organism-based; settings: in vivo
# [9] = Half life in Sprague-Dawley rat at 10 mg/kg, iv measured upto 12 hrs by mass spectrometry; type: ADME, organism-based; settings: in vivo
# [10] = Tmax in Sprague-Dawley rat at 40 mg/kg, po measured upto 12 hrs by mass spectrometry; type: ADME, organism-based; settings: in vivo
# [11] = Cmax in Sprague-Dawley rat at 40 mg/kg, po measured upto 12 hrs by mass spectrometry; type: ADME, organism-based; settings: in vivo
# [12] = AUC (0 to 12 hrs) in Sprague-Dawley rat at 40 mg/kg, po measured upto 12 hrs by mass spectrometry; type: ADME, organism-based; settings: in vivo
# [13] = AUC (0 to infinity) in Sprague-Dawley rat at 40 mg/kg, po measured upto 12 hrs by mass spectrometry; type: ADME, organism-based; settings: in vivo
# [14] = Half life in Sprague-Dawley rat at 40 mg/kg, po measured upto 12 hrs by mass spectrometry; type: ADME, organism-based; settings: in vivo
# [15] = Oral bioavailability in Sprague-Dawley rat at 40 mg/kg measured upto 12 hrs by mass spectrometry; type: ADME, organism-based; settings: in vivo
# RBL-2H3 [16] = assay: Cytotoxicity against rat RBL-2H3 cells assessed as cell viability at 5 to 100 uM incubated for 24 hrs by CCK8- assay; type: toxicity, cell-based; settings: rbl-2h3, 24 h, dose 5-100 µM
# Mus musculus [17] = assay: Antiallergic activity against ovalbumin-sensitized food allergic Balb/c mouse model assessed as suppression of spleen enlargement at 10 mg/kg once a day during OVA challenge phase (days 28 to 40) administered by intragastric; type: functional, organism-based; settings: route ig, time 13.0 day
# Mus musculus [18] = assay: Antiallergic activity against ovalbumin-sensitized food allergic Balb/c mouse model assessed as suppression of intestinal edema by measuring reduced intestinal damage at 10 mg/kg once a day during OVA challenge phase (days 28 to 40) administered by intragastric; type: functional, organism-based; settings: route ig, time 13.0 day
# Mus musculus [19] = assay: Antiallergic activity against ovalbumin-sensitized food allergic Balb/c mouse model assessed as decrease in OVA-specific IgE level treated once a day during OVA challenge phase (days 28 to 40) administered by intragastric; type: functional, organism-based; settings: dose 2.5-10 mg/kg, route ig, time 13.0 day
# Mus musculus [20] = assay: Antiallergic activity against ovalbumin-sensitized food allergic Balb/c mouse model assessed as decrease in OVA-specific IgG1 level treated once a day during OVA challenge phase (days 28 to 40) administered by intragastric; type: functional, organism-based; settings: dose 2.5-10 mg/kg, route ig, time 13.0 day
# Mus musculus [21] = assay: Antiallergic activity against ovalbumin-sensitized food allergic Balb/c mouse model assessed as decrease in OVA-specific IgG2a level at 2.5 to 10 mg/kg treated once a day during OVA challenge phase (days 28 to 40) administered by intragastric; type: functional, organism-based; settings: dose 2.5-10 mg/kg, route ig, time 13.0 day
# Mus musculus [22] = assay: Antiallergic activity against ovalbumin-sensitized food allergic Balb/c mouse model assessed as decrease in histamine level at 2.5 to 10 mg/kg treated once a day during OVA challenge phase (days 28 to 40) administered by intragastric; type: functional, organism-based; settings: dose 2.5-10 mg/kg, route ig, time 13.0 day
# Mus musculus [23] = assay: Antiallergic activity against ovalbumin-sensitized food allergic Balb/c mouse model assessed as decrease in mMCP-1 level at 2.5 to 10 mg/kg treated once a day during OVA challenge phase (days 28 to 40) administered by intragastric; type: functional, organism-based; settings: dose 2.5-10 mg/kg, route ig, time 13.0 day
# Mus musculus [24] = assay: Antiallergic activity against ovalbumin-sensitized food allergic Balb/c mouse model assessed as decrease in IL-4 level at 10 mg/kg treated once a day during OVA challenge phase (days 28 to 40) administered by intragastric; type: functional, organism-based; settings: route ig, time 13.0 day
# Mus musculus [25] = assay: Antiallergic activity against ovalbumin-sensitized food allergic Balb/c mouse model assessed as decrease in IFN-gamma level at 10 mg/kg treated once a day during OVA challenge phase (days 28 to 40) administered by intragastric; type: functional, organism-based; settings: route ig, time 13.0 day
# Mus musculus [26] = assay: Antiallergic activity against passive cutaneous anaphylaxis (PCA) reaction BALB/c mouse model assessed as reduction in BSA/IgE-mediated allergic reaction in ear by measuring extravasation of Evans blue dye pretreated IG for 7 days followed administered with anti-DNP-IgE after 24 hrs treated with DNP-BSA by Evans blue dye based microscopic analysis; type: functional, organism-based; settings: dose 2.5-10 mg/kg, time 8.0 day
# [27] = Clearance in Sprague-Dawley rat at 40 mg/kg, po measured upto 12 hrs by mass spectrometry; type: ADME, organism-based; settings: in vivo
compound,measurement,setting,value
COC(=O)[C@]1(Cc2ccc(O)c(CC=C(C)C)c2)OC(=O)C(OC)=C1c1ccc(O)cc1,inhibition at 50 µM,RBL-2H3 [1],33.2%
COC(=O)[C@]1(Cc2ccc(O)c(CC=C(C)C)c2)OC(=O)C(O)=C1c1ccc(O)cc1,inhibition at 50 µM,RBL-2H3 [1],> 90%
same,IC50,RBL-2H3 [2],13.5 µM
same,half-life,[3],0.283 h
same,half-life,[4],0.326 h
same,half-life,[5],0.292 h
same,AUC(0-t) at 12 h,[6],21.7 ng·h/mL
same,AUC(0-inf),[7],27.8 ng·h/mL
same,CL,"[8]; iv, 10 mg/kg, 12 h",7202 mL/min/kg
same,half-life,[9],4.1 h
same,Tmax,[10],0.7 h
same,Cmax,[11],10.8 ng/mL
same,AUC(0-t) at 12 h,[12],28.9 ng·h/mL
same,AUC(0-inf),[13],36.9 ng·h/mL
same,half-life,[14],4.7 h
same,bioavailability,[15],33.2%
CC(C)=CCc1cc(C[C@@]2(CO)OC(=O)C(O)=C2c2ccc(O)cc2)ccc1O,inhibition,RBL-2H3 [1],inactive
same,inhibition at 50 µM,RBL-2H3 [1],27.7%
COC(=O)[C@]1(Cc2ccc(OC(C)=O)c(CC=C(C)C)c2)OC(=O)C(OC(C)=O)=C1c1ccc(OC(C)=O)cc1,inhibition at 50 µM,RBL-2H3 [1],11.7%
CC(C)=CCc1cc(C[C@@]2(C=O)OC(=O)C(O)=C2c2ccc(O)cc2)ccc1O,inhibition,RBL-2H3 [1],Active
same,inhibition at 50 µM,RBL-2H3 [1],63.9%
COC(=O)[C@]1(Cc2ccc(O)c(CC=C(C)C)c2)OC(=O)C(OC)=C1c1ccc(OC)cc1,inhibition at 50 µM,RBL-2H3 [1],17.1%
COC(=O)[C@]1(Cc2ccc(O)c(CCC(C)C)c2)OC(=O)C(O)=C1c1ccc(O)cc1,inhibition at 50 µM,RBL-2H3 [1],47.9%
COC(=O)[C@]1(Cc2ccc(OCC=C(C)C)c(CC=C(C)C)c2)OC(=O)C(OCC=C(C)C)=C1c1ccc(OCC=C(C)C)cc1,inhibition at 50 µM,RBL-2H3 [1],15.6%
CC(=O)[C@]1(Cc2ccc(O)c(CC=C(C)C)c2)OC(=O)C(O)=C1c1ccc(O)cc1,inhibition at 50 µM,RBL-2H3 [1],> 90%
same,IC50,RBL-2H3 [2],6.7 µM
same,inhibition,RBL-2H3 [2],Dose-Dependent Effect
same,Activity,RBL-2H3 [16],Non-Toxic
same,Activity,Mus musculus [17],Active
same,Activity,Mus musculus [18],Active
same,Activity,Mus musculus [19],Dose-Dependent Effect
same,Activity,Mus musculus [20],Dose-Dependent Effect
same,Activity,Mus musculus [21],inactive
same,Activity,Mus musculus [22],Active
same,Activity,Mus musculus [23],Active
same,Activity,Mus musculus [24],Active
same,Activity,Mus musculus [25],Active
same,Activity,Mus musculus [26],Dose-Dependent Effect
same,half-life,[3],8.88 h
same,half-life,[4],3.73 h
same,half-life,[5],2.22 h
same,AUC(0-t) at 12 h,[6],4090 ng·h/mL
same,AUC(0-inf),[7],4120 ng·h/mL
same,clearance,[8]; Sprague-Dawley,45 mL/min/kg
same,half-life,[9],2.2 h
same,Tmax,[10],0.2 h
same,Cmax,[11],6110 ng/mL
same,AUC(0-t) at 12 h,[12],6540 ng·h/mL
same,AUC(0-inf),[13],7560 ng·h/mL
same,CL/F,[27],90 mL/min/kg
same,half-life,[14],4.1 h
same,bioavailability,[15],45.9%
C=CCOC1=C(c2ccc(OCC=C)cc2)[C@](Cc2ccc(OCC=C)c(CC=C(C)C)c2)(C(=O)OC)OC1=O,inhibition at 50 µM,RBL-2H3 [1],18.4%
C=CCOC1=C(c2ccc(O)cc2)[C@](Cc2ccc(O)c(CC=C(C)C)c2)(C(=O)OC)OC1=O,inhibition at 50 µM,RBL-2H3 [1],> 90%
COC(=O)[C@]1(Cc2ccc(OC)c(CC=C(C)C)c2)OC(=O)C(OC)=C1c1ccc(OC)cc1,inhibition at 50 µM,RBL-2H3 [1],38.7%
CN1CCC(=C2c3ccccc3CC(=O)c3sccc32)CC1 [KETOTIFEN],IC50,RBL-2H3 [2],27.9 µM
COC(=O)[C@]1(Cc2ccc(O)c(CC=C(C)C)c2)OC(=O)C(OC(C)=O)=C1c1ccc(O)cc1,inhibition at 50 µM,RBL-2H3 [1],33.5%
COC(=O)[C@]1(Cc2ccc3c(c2)CCC(C)(C)O3)OC(=O)C(O)=C1c1ccc(O)cc1,inhibition at 50 µM,RBL-2H3 [1],10.1%
COC(=O)[C@]1(Cc2ccc(OC(C)=O)c(CC=C(C)C)c2)OC(=O)C(OC(C)=O)=C1c1ccc(O)cc1,inhibition at 50 µM,RBL-2H3 [1],27.8%
COC(=O)[C@]1(Cc2ccc(O)c(CC=C(C)C)c2)OC(=O)C(OC(=O)C(C)C)=C1c1ccc(OC(=O)C(C)C)cc1,inhibition at 50 µM,RBL-2H3 [1],21.3%
COC(=O)[C@]1(Cc2ccc(O)c(CC=C(C)C)c2)OC(=O)C(OC(=O)C(C)C)=C1c1ccc(O)cc1,inhibition at 50 µM,RBL-2H3 [1],36.7%
COC(=O)[C@]1(Cc2ccc(OC(=O)C(C)C)c(CC=C(C)C)c2)OC(=O)C(OC(=O)C(C)C)=C1c1ccc(OC(=O)C(C)C)cc1,inhibition at 50 µM,RBL-2H3 [1],6.93%
C=CCOC1=C(c2ccc(OCC=C)cc2)[C@](Cc2ccc(O)c(CC=C(C)C)c2)(C(=O)OC)OC1=O,inhibition at 50 µM,RBL-2H3 [1],8.95%
